Measured values published in patent US10174293B1, “Recombinant PB1 bacteriophages and uses thereof” (Charles Stark Draper Laboratory, Inc., priority 2018, dated 2019).

Test system: drug sensitive strain
Assay: Antibiotic susceptibility profiling with recombinant PB1 phages, drug sensitive strain
Assay type: cell-based, Pseudomonas aeruginosa
Text: In some embodiments of the method, the differences in the reporter gene expression of the recombinant PB1 bacteriophage observed in the antibiotic treated sub-sample and the untreated control sub-sample is defined as μ.

## gentamicin
Versus 'no drug' sample (FIG. 4B)
  luciferase activity of antibiotic treated sample: decline in luciferase activity
μ = difference in reporter expression, treated vs untreated (FIG. 4B)
  μ value over time: steady increase in μ value over time
